# Assay results as given in patent US10172868B2, “Substituted quinazolines for inhibiting kinase activity” (NeuPharma, Inc., priority 2013, dated 2019).
# Columns and labels:
# [1] = test system: HCC827 cells; experiment: cells; settings: Homo sapiens, HCC827, 72 h, read-out: IC50 in HCC827 cells
# [2] = molecular target: EGFR (ErbB1) T790M L858R (Homo sapiens (Human), UniProt P00533, L858R/T790M); experiment: Z'-LYTE kinase inhibition assay, EGFR L858R/T790M; format: biochemical; settings: for IC50: read-out: IC50 against EGFR L858R/T790M; for inhibition at 0.0137 µM: read-out: % inhibition against EGFR L858R/T790M (Compound at 0.0137 μM)
# EGFR (ErbB1) T790M L858R, sequence (P00533 25-1210 T790M/L858R): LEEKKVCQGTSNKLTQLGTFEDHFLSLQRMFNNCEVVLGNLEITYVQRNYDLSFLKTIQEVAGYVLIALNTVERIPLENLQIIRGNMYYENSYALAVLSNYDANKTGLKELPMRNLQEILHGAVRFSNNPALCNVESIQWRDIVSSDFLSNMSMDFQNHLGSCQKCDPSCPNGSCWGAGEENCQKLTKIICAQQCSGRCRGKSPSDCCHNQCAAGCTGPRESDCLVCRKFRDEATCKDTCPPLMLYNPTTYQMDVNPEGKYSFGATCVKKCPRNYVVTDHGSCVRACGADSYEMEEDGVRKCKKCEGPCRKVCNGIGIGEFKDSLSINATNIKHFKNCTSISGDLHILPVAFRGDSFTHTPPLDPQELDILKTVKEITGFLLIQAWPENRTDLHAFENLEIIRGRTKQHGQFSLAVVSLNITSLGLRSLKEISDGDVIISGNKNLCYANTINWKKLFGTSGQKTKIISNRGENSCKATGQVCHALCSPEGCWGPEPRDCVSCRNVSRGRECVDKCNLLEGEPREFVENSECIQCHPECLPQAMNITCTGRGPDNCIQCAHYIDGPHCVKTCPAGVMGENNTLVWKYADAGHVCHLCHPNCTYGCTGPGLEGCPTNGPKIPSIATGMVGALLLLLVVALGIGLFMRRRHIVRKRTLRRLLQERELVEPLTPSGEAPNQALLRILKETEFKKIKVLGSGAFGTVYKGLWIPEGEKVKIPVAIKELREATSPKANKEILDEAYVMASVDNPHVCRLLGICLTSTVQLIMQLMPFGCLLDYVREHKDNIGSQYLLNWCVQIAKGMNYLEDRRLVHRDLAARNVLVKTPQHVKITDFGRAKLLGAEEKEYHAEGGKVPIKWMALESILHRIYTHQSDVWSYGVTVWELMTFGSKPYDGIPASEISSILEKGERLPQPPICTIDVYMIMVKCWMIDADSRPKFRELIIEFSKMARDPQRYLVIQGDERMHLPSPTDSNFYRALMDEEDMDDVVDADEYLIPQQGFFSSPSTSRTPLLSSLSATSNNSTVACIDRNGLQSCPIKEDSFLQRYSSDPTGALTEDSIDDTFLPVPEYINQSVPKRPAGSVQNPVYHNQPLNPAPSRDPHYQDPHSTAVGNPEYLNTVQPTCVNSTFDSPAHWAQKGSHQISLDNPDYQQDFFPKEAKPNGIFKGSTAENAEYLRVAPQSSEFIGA
# Method in brief: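 Z'-LYTE FRET peptide assay at 1% DMSO, 10-point 3-fold titrations; kinase/peptide mix in 50 mM HEPES pH 6.5, 0.01% BRIJ-35, 10 mM MgCl2, 1 mM EGTA, 0.02% NaN3. Kinase reaction ran 60 min at room temperature, followed by 60 min development and a fluorescence read. IC50 derived from the concentration series.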
# [3] = test system: H3255 cells; experiment: Inhibition of cancer cell growth, MTT assay, H3255; settings: Homo sapiens, NCI-H3255, 72 h, read-out: IC50 in H3255 cells
# Experimental: (§1) Inhibition of cell growth by compounds was measured using MTT assay (Mosmann, T., Journal of Immunological Methods, 1983, 65, 55-63). Tumor cell lines were purchased from ATCC (American Type Culture Collection, Manassas, Va.). All cell lines were maintained in RPMI 1640 (Hyclone) supplemented with 10% fetal bovine serum (FBS, Hyclone), glutamine (2 mM, Hyclone), and antibiotics (penicillin 100 U/mL and streptomycin 50 μg/mL) at 37° C. in a humidified atmosphere of 5% CO2 in air. Taxol (as a positive control. Sigma) and compounds were dissolved in DMSO (Sigma), and the final concentration of DMSO in the medium was 1%. Tumor cells were plated in 96-well plates at densities of about 4000 cells/well of a 96-well plate and allowed to adhere/grow for 24 h. They were then treated with various concentrations of drug for 72 h, 3-(4,5-Dimethylthiazol-2-yl)-2,5-diphenyltetrazolium bromide (MTT, Sigma) was used to determine the number of viable cells at the time of compound addition and the number of cells remaining after 72 h compound exposure. The number of cells remaining after 72 h was compared to the number of viable cells at the time of compound addition by measuring the absorbance at 570 nm, allowing for the calculation of growth inhibition.
# (§2) All concentrations of compounds were tested in triplicate and controls were averaged over 4 wells. IC50 was calculated by plotting the concentration of compound vs the percentage of inhibition in treated wells using GraphPad Prism 5.
# [4] = test system: A431 cells; experiment: cells; settings: Homo sapiens, A-431, 72 h, read-out: IC50 in A431 cells
# Experimental: Taxol (as a positive control. Sigma) and compounds were dissolved in DMSO (Sigma), and the final concentration of DMSO in the medium was 1%. Tumor cells were plated in 96-well plates at densities of about 4000 cells/well of a 96-well plate and allowed to adhere/grow for 24 h. They were then treated with various concentrations of drug for 72 h, 3-(4,5-Dimethylthiazol-2-yl)-2,5-diphenyltetrazolium bromide (MTT, Sigma) was used to determine the number of viable cells at the time of compound addition and the number of cells remaining after 72 h compound exposure. The number of cells remaining after 72 h was compared to the number of viable cells at the time of compound addition by measuring the absorbance at 570 nm, allowing for the calculation of growth inhibition.
# as §2
# The scale utilized in Tables 5 is as follows: +++ less than 100 nM; ++ between 100 nM and 500 nM; and + greater than 500 nM.
# [5] = molecular target: EGFR (ErbB1) (Homo sapiens (Human), UniProt P00533); experiment: Z'-LYTE kinase inhibition assay, EGFR; format: biochemical; settings: for inhibition at 0.041 µM: read-out: % inhibition against EGFR (Compound at 0.041 μM); for IC50: read-out: IC50 against EGFR
# EGFR (ErbB1), sequence (P00533 25-1210): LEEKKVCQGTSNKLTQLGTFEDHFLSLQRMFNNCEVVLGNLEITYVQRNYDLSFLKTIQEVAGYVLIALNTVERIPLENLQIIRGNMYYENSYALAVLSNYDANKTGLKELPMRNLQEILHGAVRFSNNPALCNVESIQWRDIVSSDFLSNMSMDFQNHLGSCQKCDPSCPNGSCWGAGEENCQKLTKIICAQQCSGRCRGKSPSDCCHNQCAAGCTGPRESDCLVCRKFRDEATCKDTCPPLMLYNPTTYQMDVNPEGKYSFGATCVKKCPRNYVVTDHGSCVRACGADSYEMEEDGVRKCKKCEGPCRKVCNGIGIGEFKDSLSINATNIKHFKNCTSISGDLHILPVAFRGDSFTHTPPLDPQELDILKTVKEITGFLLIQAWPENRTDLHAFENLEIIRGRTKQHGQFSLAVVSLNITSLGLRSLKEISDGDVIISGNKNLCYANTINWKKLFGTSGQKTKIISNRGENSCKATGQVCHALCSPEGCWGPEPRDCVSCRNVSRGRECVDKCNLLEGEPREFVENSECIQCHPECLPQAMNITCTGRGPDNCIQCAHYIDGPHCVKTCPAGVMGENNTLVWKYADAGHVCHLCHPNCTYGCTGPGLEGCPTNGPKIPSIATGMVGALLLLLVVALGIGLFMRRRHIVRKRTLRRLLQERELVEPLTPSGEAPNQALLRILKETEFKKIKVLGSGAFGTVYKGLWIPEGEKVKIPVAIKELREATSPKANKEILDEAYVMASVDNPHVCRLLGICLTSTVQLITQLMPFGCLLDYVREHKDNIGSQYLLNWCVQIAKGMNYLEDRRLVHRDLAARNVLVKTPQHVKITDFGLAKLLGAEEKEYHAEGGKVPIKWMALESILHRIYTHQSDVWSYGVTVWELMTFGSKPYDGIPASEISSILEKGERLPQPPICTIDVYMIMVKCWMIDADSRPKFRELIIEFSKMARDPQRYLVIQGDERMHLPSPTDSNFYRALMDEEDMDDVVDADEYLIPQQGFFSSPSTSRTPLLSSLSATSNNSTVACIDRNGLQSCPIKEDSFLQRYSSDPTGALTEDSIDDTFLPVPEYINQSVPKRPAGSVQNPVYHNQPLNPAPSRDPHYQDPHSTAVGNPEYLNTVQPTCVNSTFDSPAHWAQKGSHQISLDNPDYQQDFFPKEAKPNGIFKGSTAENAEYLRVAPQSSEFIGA
# Method in brief: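 Z'-LYTE FRET assay run with 1.1-5.25 ng EGFR and 2 μM peptide substrate in 50 mM HEPES pH 7.5, 10 mM MgCl2, 2 mM MnCl2, 1 mM EGTA, 1 mM DTT, 0.01% BRIJ-35, 1% DMSO. Kinase reaction 60 min at room temperature, then 60 min development; IC50 from 10-point 3-fold titrations.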
# [6] = test system: H1975 cells; experiment: Inhibition of cancer cell growth, MTT assay, H1975; settings: Homo sapiens, NCI-H1975, 72 h, read-out: IC50 in H1975 cells
# Experimental: as §1, §2
# [7] = molecular target: BTK (Homo sapiens (Human), UniProt Q06187); experiment: Z'-LYTE kinase inhibition assay, BTK; format: biochemical; settings: for IC50: read-out: IC50 against BTK
# BTK, sequence (Q06187 whole entry): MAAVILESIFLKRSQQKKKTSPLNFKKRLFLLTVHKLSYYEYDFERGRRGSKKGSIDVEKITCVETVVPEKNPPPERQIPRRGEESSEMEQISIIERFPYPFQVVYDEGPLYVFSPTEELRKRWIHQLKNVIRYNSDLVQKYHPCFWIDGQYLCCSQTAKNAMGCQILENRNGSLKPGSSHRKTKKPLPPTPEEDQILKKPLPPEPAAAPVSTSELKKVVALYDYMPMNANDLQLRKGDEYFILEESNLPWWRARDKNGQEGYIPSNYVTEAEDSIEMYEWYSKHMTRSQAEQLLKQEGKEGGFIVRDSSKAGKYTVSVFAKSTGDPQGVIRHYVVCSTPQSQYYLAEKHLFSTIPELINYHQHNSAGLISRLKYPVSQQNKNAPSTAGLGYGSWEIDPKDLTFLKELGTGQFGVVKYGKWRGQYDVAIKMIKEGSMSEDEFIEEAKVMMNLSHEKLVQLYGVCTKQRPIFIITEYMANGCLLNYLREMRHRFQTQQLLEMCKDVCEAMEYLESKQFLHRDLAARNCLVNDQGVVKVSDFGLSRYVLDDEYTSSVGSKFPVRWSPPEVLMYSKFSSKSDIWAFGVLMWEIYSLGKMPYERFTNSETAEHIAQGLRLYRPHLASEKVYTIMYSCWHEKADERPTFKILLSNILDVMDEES
# Experimental: Inhibitory activities of compounds against BTK, EGFR and EGFR mutants (EGFR L858R, EGFR T790M, EGFR L858R/T790M), FGFR1, FGFR2, JAK2, JAK3 and KDR were measured by Invitrogen using Z'-LYTE® Method as briefly described in the following.
# Test Compounds are screened in 1% DMSO (final) in the well. For 10 point titrations, 3-fold serial dilutions are conducted from the starting concentration. All ATP Solutions are diluted to a 4× working concentration in Kinase Buffer (50 mM HEPES pH 7.5, 0.01% BRIJ-35, 10 mM MgCl2, 1 mM EGTA). Peptide/Kinase Mixtures are diluted to a 2× working concentration in the appropriate Kinase Buffers as described below.
# (v) Peptide/Kinase Mixtures for Measurement of BTK:
# The 2×BTK/Tyr 01 mixture is prepared in 50 mM HEPES pH 7.5. 0.01% BRIJ-35, 10 mM MgCl2, 1 mM EGTA.
# The mixture is then incubated for another 60-minute at room temperature for development reaction. Finally fluorescence is read by plate reader.
# To determine IC50 of a compound against EGFR, EGFR mutant and other kinases, a series of concentrations of the compound were tested for the inhibition. […] The scale utilized in Table 4 is as follows: +++ less than 100 nM, ++ 100-500 nM and + greater than 500 nM.
# [8] = test system: H1975 tumor xenografts; experiment: Inhibition of tumor growth in H1975 xenograft model; format: in vivo, BALB/c female nude mice; settings: QD x 14; for Tumor Volume Pre-treatment: baseline before treatment
# Experimental: H1975 cells were implanted in BALB/c female nude mice and grown as tumor xenografts. When tumors achieved 120-200 mm^3, mice were assigned into treatment and control groups using randomized block design based upon their tumor volumes. Each group contained 6 tumor-bearing mice. Tumors were measured twice weekly in two dimensions using a caliper, and the tumor volume was calculated from two-dimensional measurements using the equation V=0.5×a×b^2 where a and b are the long and short diameters of the tumor, respectively. Relative tumor volume (RTV) was defined as TVt/TVi, the ratio of the volume on a given day (TVt) and the volume at the start of treatment (TVi). Relative tumor growth rate (T/C) was defined as RTVT/RTVC, the ratio of relative tumor volume of treatment group (RTVT) and relative tumor volume of control group (RTVC) on a given day.
# [9] = 30 mg/kg, Intraperitoneal injection
Compound,IC50 [1],inhibition at 1 µM ([2]; read-out: % inhibition against EGFR L858R/T790M (Compound at 1 μM)),IC50 [3],IC50 [4],inhibition at 1 µM ([5]; read-out: % inhibition against EGFR (Compound at 1 μM)),IC50 [6],IC50 [2],IC50 [7],inhibition at 0.041 µM [5],"T/C (relative tumor growth rate) [8, 9]","Tumor Volume Post-treatment [8, 9]","Tumor Volume Pre-treatment [8, 9]",inhibition at 0.0137 µM [2],IC50 [5],"inhibition at 0.041 µM ([7]; compound at 0.041 μM, read-out: % inhibition against BTK)","T/C (relative tumor growth rate) ([8]; Table 7 study, 60 mg/kg, Oral)","Tumor Volume Post-treatment ([8]; Table 7 study, 60 mg/kg, Oral)","Tumor Volume Pre-treatment ([8]; Table 7 study, 60 mg/kg, Oral)"
"C=CC(=O)Nc1cccc(-c2cccc3cnc(Nc4ccc(N5CCN(CC)CC5)cc4)nc23)c1 [Example C029, N-(3-(2-((4-(4-ethylpiperazin-1-yl)phenyl)amino)quinazolin-8-yl)phenyl)acrylamide]",< 100 nM,> 50%,> 500 nM,100 to 500 nM,> 50%,100 to 500 nM,,,,,,,,,,,,
"C=CC(=O)Nc1cccc(-c2cccc3cnc(Nc4ccc(OC5CCN(C)CC5F)cc4)nc23)c1 (centres unmarked) [Example C079, N-(3-(2-((4-((3-fluoro-1-methylpiperidin-4-yl)oxy)phenyl)amino)quinazolin-8-yl)phenyl)acrylamide]",,,100 to 500 nM,100 to 500 nM,,< 100 nM,< 100 nM,< 100 nM,< 50%,,,,,,,,,
"C=CC(=O)Nc1cccc(-c2cccc3cnc(Nc4ccc(NC5CN(CCF)C5)cc4)nc23)c1 [Example C103, N-(3-(2-((4-((1-(2-fluoroethyl)azetidin-3-yl)amino)phenyl)amino)quinazolin-8-yl)phenyl)acrylamide]",,,100 to 500 nM,< 100 nM,,< 100 nM,< 100 nM,,< 50%,35.8%,748.7 mm^3,150.9 mm^3,> 50%,,,,,
"C=CC(=O)Nc1cccc(-c2cccc3cnc(Nc4ccc(NC5CCN(C)CC5F)cc4)nc23)c1 (centres unmarked) [Example C105, N-(3-(2-((4-((3-fluoro-1-methylpiperidin-4-yl)amino)phenyl)amino)quinazolin-8-yl)phenyl)acrylamide]",< 100 nM,,< 100 nM,100 to 500 nM,,< 100 nM,< 100 nM,< 100 nM,< 50%,,,,,< 100 nM,,,,
"C=CC(=O)Nc1cccc(-c2cccc3cnc(Nc4ccc(N5CCN(C)CC5=O)cc4)nc23)c1 [Example C106, N-(3-(2-((4-(4-methyl-2-oxopiperazin-1-yl)phenyl)amino)quinazolin-8-yl)phenyl)acrylamide]",,,100 to 500 nM,< 100 nM,,< 100 nM,< 100 nM,< 100 nM,,,,,,> 500 nM,,,,
"C=CC(=O)Nc1cccc(-c2cccc3cnc(Nc4ccc(OCCOC)cc4)nc23)c1 [Example C107, N-(3-(2-((4-(2-methoxyethoxy)phenyl)amino)quinazolin-8-yl)phenyl)acrylamide]",,,100 to 500 nM,< 100 nM,,< 100 nM,< 100 nM,< 100 nM,,63.6%,1341.7 mm^3,150.6 mm^3,,> 500 nM,,,,
"C=CC(=O)Nc1cccc(-c2cccc3cnc(Nc4ccc(NC5CCN(C)CC5)cc4)nc23)c1 [Example C118, N-(3-(2-((4-((1-methylpiperidin-4-yl)amino)phenyl)amino)quinazolin-8-yl)phenyl)acrylamide]",,,100 to 500 nM,< 100 nM,,< 100 nM,< 100 nM,,> 50%,,,,> 50%,,> 50%,,,
"C=CC(=O)Nc1cccc(-c2cccc3cnc(Nc4ccc(NC5CCN(C)CC5)cc4F)nc23)c1 [Example C140, N-(3-(2-((2-fluoro-4-((1-methylpiperidin-4-yl)amino)phenyl)amino)quinazolin-8-yl)phenyl)acrylamide]",,,> 500 nM,> 500 nM,,< 100 nM,< 100 nM,,> 50%,,,,> 50%,,,,,
"C=CC(=O)Nc1cccc(-c2cccc3cnc(Nc4ccc(OC5CCN(C)CC5)cc4F)nc23)c1 [Example C141, N-(3-(2-((2-fluoro-4-((1-methylpiperidin-4-yl)oxy)phenyl)amino)quinazolin-8-yl)phenyl)acrylamide]",< 100 nM,,100 to 500 nM,100 to 500 nM,,< 100 nM,< 100 nM,,> 50%,,,,> 50%,,,,,
"C=CC(=O)Nc1cccc(-c2cccc3cnc(Nc4ccc(N5CCN(CC(C)(C)O)CC5)cc4)nc23)c1 [Example C145, N-(3-(2-((4-(4-(2-hydroxy-2-methylpropyl)piperazin-1-yl)phenyl)amino)quinazolin-8-yl)phenyl)acrylamide]",< 100 nM,,> 500 nM,100 to 500 nM,,< 100 nM,< 100 nM,,< 50%,,,,> 50%,,,,,
"C=CC(=O)Nc1cccc(-c2cccc3cnc(Nc4ccc(N5CCN(CCO)CC5)cc4F)nc23)c1 [Example C147, N-(3-(2-((2-fluoro-4-(4-(2-hydroxyethyl)piperazin-1-yl)phenyl)amino)quinazolin-8-yl)phenyl)acrylamide]",< 100 nM,,> 500 nM,100 to 500 nM,,< 100 nM,< 100 nM,< 100 nM,< 50%,,,,,< 100 nM,,55.7%,898 mm3,240 mm3
"C=CC(=O)Nc1cccc(-c2cccc3cnc(Nc4ccc(N5CCN(CCO)CC5)c(F)c4F)nc23)c1 [Example C151, N-(3-(2-((2,3-difluoro-4-(4-(2-hydroxyethyl)piperazin-1-yl)phenyl)amino)quinazolin-8-yl)phenyl)acrylamide]",< 100 nM,,> 500 nM,100 to 500 nM,,< 100 nM,< 100 nM,< 100 nM,< 50%,,,,,< 100 nM,,28.6%,462 mm3,229 mm3
"C=CC(=O)Nc1cccc(-c2cccc3cnc(Nc4ccc(N5CCN(CCOC)CC5)cc4)nc23)c1 [Example C152, N-(3-(2-((4-(4-(2-methoxyethyl)piperazin-1-yl)phenyl)amino)quinazolin-8-yl)phenyl)acrylamide]",,,100 to 500 nM,100 to 500 nM,,< 100 nM,,,< 50%,,,,> 50%,,,,,
"C=CC(=O)Nc1cccc(-c2cccc3cnc(Nc4ccc(N5CCN(C)CC5)c(F)c4F)nc23)c1 [Example C156, N-(3-(2-((2,3-difluoro-4-(4-methylpiperazin-1-yl)phenyl)amino)quinazolin-8-yl)phenyl)acrylamide]",< 100 nM,,> 500 nM,100 to 500 nM,,< 100 nM,< 100 nM,,,,,,,< 100 nM,,36.8%,594 mm3,232 mm3
